Experiments:
B. subtilis 168 [1] = assay: fitness (endpoint OD595 vs no drug) (fraction); higher = more growth
Method in brief: (§1)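 Plates with 384 wells were inoculated at OD595 0.01 using 30 µl of TSB, LB Lennox or CY, or 55 µl for S. pneumoniae. Incubation was at 37 °C, with OD595 measured every 30 min for 14 h. Fitness is the stationary-phase transition optical density over the robust mean of no-drug control wells, after first-reading background subtraction; it is capped at 1.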

S. aureus DSM 20231 [2] = assay: as above
Method in brief: as §1

S. aureus Newman [3] = assay: as above; conditions: one replicate
Method in brief: as §1

S. pneumoniae D39V [4] = assay: as above
Method in brief: as §1

B. subtilis 168 [5] = assay: Bliss interaction score (quartile over a dose matrix) (fitness difference); higher = more antagonism (negative = synergy)
Method in brief: (§2)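 Quartiles of the Bliss score were taken over technical, biological and donor/recipient replicates. That score is observed fitness minus the product of the single-drug fitness values, which were inferred from combination data. Fitness itself is OD595 at entry into stationary phase divided by the plate's robust no-drug mean, with a cap at 1.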

S. aureus DSM 20231 [6] = assay: as above
Method in brief: as §2

S. aureus Newman [7] = assay: as above
Method in brief: as §2

S. pneumoniae D39V [8] = assay: as above
Method in brief: as §2
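Wherever Bliss interaction score (quartile over a dose matrix) is given: first quartile when negative (synergy) and third quartile when positive (antagonism).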

CO/N=C(\C(=O)N[C@@H]1C(=O)N2C(C(=O)O)=C(COC(C)=O)CS[C@H]12)c1csc(N)n1 [Cefotaxime] + CC1=C\[C@@H](O)CC(=O)Cc2nc(co2)C(=O)N2CCC=C2C(=O)O[C@H](C(C)C)[C@H](C)/C=C/C(=O)NC\C=C\1 [Virginiamycin M1]
one replicate
Conditions	fitness
B. subtilis 168 [1], first compound 0.00775 µg/mL, partner 0.0625 µg/mL	0.854
B. subtilis 168 [1], first compound 0.00775 µg/mL, partner 0.125 µg/mL	0.833
B. subtilis 168 [1], first compound 0.00775 µg/mL, partner 0.25 µg/mL	0.833
B. subtilis 168 [1], first compound 0.0155 µg/mL, partner 0.0625 µg/mL	0.695
B. subtilis 168 [1], first compound 0.0155 µg/mL, partner 0.125 µg/mL	0.683
B. subtilis 168 [1], first compound 0.0155 µg/mL, partner 0.25 µg/mL	0.673
B. subtilis 168 [1], first compound 0.031 µg/mL, partner 0.0625 µg/mL	0.554
B. subtilis 168 [1], first compound 0.031 µg/mL, partner 0.125 µg/mL	0.557
B. subtilis 168 [1], first compound 0.031 µg/mL, partner 0.25 µg/mL	0.583
S. aureus DSM 20231 [2], first compound 0.039 µg/mL, partner 0.0625 µg/mL	0.775
S. aureus DSM 20231 [2], first compound 0.039 µg/mL, partner 0.125 µg/mL	0.779
S. aureus DSM 20231 [2], first compound 0.039 µg/mL, partner 0.25 µg/mL	0.762
S. aureus DSM 20231 [2], first compound 0.078 µg/mL, partner 0.5 µg/mL	0.778
S. aureus DSM 20231 [2], first compound 0.078 µg/mL, partner 1 µg/mL	0.799
S. aureus DSM 20231 [2], first compound 0.156 µg/mL, partner 0.5 µg/mL	0.742
S. aureus DSM 20231 [2], first compound 0.156 µg/mL, partner 1 µg/mL	0.699
S. aureus DSM 20231 [2], first compound 0.312 µg/mL, partner 0.5 µg/mL	0.61
S. aureus DSM 20231 [2], first compound 0.312 µg/mL, partner 1 µg/mL	0.706
S. pneumoniae D39V [4], first compound 0.0018 µg/mL, partner 0.15 µg/mL	≥ 1
S. pneumoniae D39V [4], first compound 0.0018 µg/mL, partner 0.3 µg/mL	0.976
S. pneumoniae D39V [4], first compound 0.0035 µg/mL, partner 0.15 µg/mL	≥ 1
S. pneumoniae D39V [4], first compound 0.0035 µg/mL, partner 0.3 µg/mL	≥ 1
S. pneumoniae D39V [4], first compound 0.007 µg/mL, partner 0.15 µg/mL	≥ 1
S. pneumoniae D39V [4], first compound 0.007 µg/mL, partner 0.3 µg/mL	0.952

fitness
Conditions	partner 0.0625 µg/mL	partner 0.125 µg/mL	partner 0.25 µg/mL	partner 0.5 µg/mL	partner 1 µg/mL	partner 2 µg/mL
B. subtilis 168 [1], first compound 0.5 µg/mL	0.23	0.246	0.239	–	–	–
B. subtilis 168 [1], first compound 1 µg/mL	0.085	0.0947	0.119	–	–	–
B. subtilis 168 [1], first compound 2 µg/mL	0.0507	0.082	0.0814	–	–	–
S. aureus DSM 20231 [2], first compound 0.078 µg/mL	0.678	0.784	0.776	–	–	–
S. aureus DSM 20231 [2], first compound 0.156 µg/mL	0.711	0.83	0.741	–	–	–
S. aureus DSM 20231 [2], first compound 0.312 µg/mL	0.683	0.694	0.676	–	–	–
S. aureus Newman [3], first compound 0.039 µg/mL	–	–	–	0.71	0.72	0.732
S. aureus Newman [3], first compound 0.078 µg/mL	0.699	0.716	0.734	0.672	0.687	0.57
S. aureus Newman [3], first compound 0.156 µg/mL	0.494	0.468	0.509	0.648	0.613	0.444
S. aureus Newman [3], first compound 0.312 µg/mL	0.305	0.326	0.307	0.57	0.54	0.344
S. aureus Newman [3], first compound 0.625 µg/mL	0.0023	0.0438	0.039	–	–	–
S. aureus Newman [3], first compound 1.25 µg/mL	0.0272	0.0702	0.0726	–	–	–
S. aureus Newman [3], first compound 2.5 µg/mL	0.0428	0.0329	0.0641	–	–	–
S. pneumoniae D39V [4], first compound 0.0018 µg/mL	–	–	–	0.991	1	0.947
S. pneumoniae D39V [4], first compound 0.0035 µg/mL	–	–	–	0.975	0.95	0.966
S. pneumoniae D39V [4], first compound 0.007 µg/mL	–	–	–	0.916	0.957	0.917

Conditions	Bliss interaction score
B. subtilis 168 [5]	0.0729
S. aureus DSM 20231 [6]	0.0452
S. aureus Newman [7]	-0.0479
S. pneumoniae D39V [8]	-0.0315

Source: the supplement of paper PMC10627819
